For 4 compounds, IC50 results are on record in patent US7973024B2, “24-sulfoximine vitamin D3 compounds” (Cyctochroma Inc., priority 2002, dated 2011).

One experiment concerns the target T1, CYP24 (Homo sapiens, UniProt Q07973).
T1 construct: expressed in transfected cells
T1 sequence (Q07973 36-514): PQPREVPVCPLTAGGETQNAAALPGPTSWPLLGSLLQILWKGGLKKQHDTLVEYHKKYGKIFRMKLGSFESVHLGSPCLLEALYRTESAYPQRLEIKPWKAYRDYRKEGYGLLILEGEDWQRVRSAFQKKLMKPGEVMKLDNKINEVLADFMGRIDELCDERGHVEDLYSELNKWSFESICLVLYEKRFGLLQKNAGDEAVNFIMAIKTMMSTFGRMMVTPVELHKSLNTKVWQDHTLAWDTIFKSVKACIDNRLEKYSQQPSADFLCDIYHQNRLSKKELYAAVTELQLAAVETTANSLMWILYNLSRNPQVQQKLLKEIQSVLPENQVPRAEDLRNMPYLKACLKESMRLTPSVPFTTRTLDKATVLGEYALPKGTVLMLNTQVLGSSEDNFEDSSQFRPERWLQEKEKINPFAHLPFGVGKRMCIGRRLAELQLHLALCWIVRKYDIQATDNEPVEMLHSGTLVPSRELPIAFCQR
The experiment in a line: CYP24 enzyme assay (stable cell line V79-CYP24 cells). It is filed as cell-based. Conditions: [3H-1β]-1α,25(OH)2D3 20 nM, 2 hours. The procedure:
1. Preparation of Cell Suspension • On the day of the assay, washed the monolayer of V79-CYP24 cells once with 1×PBS buffer and then trypsinize for 5 min at room temperature (approx. 22° C.). Added 1×PBS. Collected cells into tube, centrifuged cells (500×g, 5 min) and resuspended in DMEM+1% BSA media.
2. Cell Plating • Added 150 μl of cell suspension to appropriately labelled wells of a 48-well plate. Incubated plate for 30 minutes at 37° C. in a humidified atmosphere containing 5% CO2 for adherence of cells to wells.
3. Compound Addition • Added 25 μl of inhibitor (10^−6 to 10^−9 M) and then after 10 min added 25 μl of substrate [^3H-1β]-1α,25(OH)2D3 (20 nM) for 2 hours at 37° C. in a humidified atmosphere containing 5% CO2. Both inhibitor and substrate were prepared in DMEM with 1% BSA media in the absence and presence of 100 μM DPPD.
4. Lipid Extraction and Counting • Added 500 μL of methanol to stop the reaction. Transferred to tube. Added 250 μl of dichloromethane and vortexed. Added 250 μl of dichloromethane and 250 μl of saturated KCL and vortexed. Centrifuged at 4000 rpm for 5 min. Triplicate 100 μl aliquots of aqueous fraction were mixed with 600 μl of scintillation fluid and the radioactivity was measured using a scintillation counter. All values were normalized for background. (iii) Results.

For a further experiment, the target named is T2, CYP27A1 (Homo sapiens, UniProt Q02318).
T2 sequence (Q02318 34-531): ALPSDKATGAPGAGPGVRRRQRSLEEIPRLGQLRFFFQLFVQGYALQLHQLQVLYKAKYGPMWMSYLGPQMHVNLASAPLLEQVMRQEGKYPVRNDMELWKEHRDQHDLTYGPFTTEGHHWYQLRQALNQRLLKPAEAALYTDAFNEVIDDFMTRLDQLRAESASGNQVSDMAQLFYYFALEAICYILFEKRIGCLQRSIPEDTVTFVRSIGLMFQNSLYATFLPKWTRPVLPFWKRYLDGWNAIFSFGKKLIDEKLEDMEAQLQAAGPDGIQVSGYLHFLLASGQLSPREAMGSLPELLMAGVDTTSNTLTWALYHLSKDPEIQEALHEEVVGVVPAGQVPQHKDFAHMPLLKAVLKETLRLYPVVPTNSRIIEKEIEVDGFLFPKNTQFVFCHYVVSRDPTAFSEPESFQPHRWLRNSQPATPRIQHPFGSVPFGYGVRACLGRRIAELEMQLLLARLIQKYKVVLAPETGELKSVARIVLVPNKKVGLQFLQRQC
The experiment in a line: CYP27A1 enzyme assay. It is filed as biochemical.

Each structure is given as a SMILES string.

For the compound `C=C1/C(=C\C=C2/CCC[C@]3(C)[C@@H]([C@H](C)CCS(=N)(=O)c4ccccc4)CC[C@@H]23)C[C@@H](O)C[C@@H]1O` (single isomer, unassigned) [I(a)], the IC50 against CYP24 worked out at 4 nM.

As to `C=C1/C(=C\C=C2/CCC[C@]3(C)[C@@H]([C@H](C)CCS(=O)(=NC)c4ccccc4)CC[C@@H]23)C[C@@H](O)C[C@@H]1O` (single isomer, unassigned) [I(e)], the results for the 50% inhibitory concentration (IC50) against CYP24 and on CYP27A1 were 29 nM and greater than 1000 nM, respectively.

As to `C=C1/C(=C\C=C2/CCC[C@]3(C)[C@@H]([C@H](C)CCS(=O)(=NC)c4ccccc4)CC[C@@H]23)C[C@@H](O)C[C@@H]1O` (single isomer, unassigned) [I(g)], the figures for the IC50 against CYP24 and on CYP27A1 were 26 nM and greater than 1000 nM, respectively.

The compound `C[C@H](CCS(=N)(=O)c1ccccc1)[C@H]1CC[C@H]2/C(=C/C=C3C[C@@H](O)C[C@H](O)C3)CCC[C@]12C` (single isomer, unassigned) [I(i), 24-Phenyl Sulfoximine 19-Nor-Vitamin-D3] had an IC50 at CYP24 of 8.5 nM.

The IC50 is the concentration that inhibits the measured activity by half. Read a high IC50 as weaker potency.
